Measured values: US7151116B2, “Apoptolidin analogs and derivatives for inducing apoptosis in transformed cells” (Board of Trustees of The Leland Stanford Junior University, priority 2003, dated 2006)
Like-named read-outs stand apart in the source and are kept apart here.

How the values were obtained:
[1] = Apoptolidin-isoapoptolidin equilibrium kinetics in PBS at 37° C. (reverse-phase HPLC); type: physicochemical; settings: solution starting from the labelled isomer (Q(t) = 0 at t = 0: apoptolidin, Q(t) = ∞ at t = 0: isoapoptolidin); for k1: apoptolidin to isoapoptolidin; for k−1: isoapoptolidin to apoptolidin
Protocol: (§1) To measure the kinetic parameters of apoptolidin and isoapoptolidin, solutions of both compounds in PBS (Dulbecco's phosphate buffered saline) were prepared and incubated at 37° C. in sealed reaction vessels. Periodically, the components present in the solutions were quantified using reverse-phase HPLC. Baseline separation was achieved using a 150×4.6 mm C18/5μ column eluting with a water/acetonitrile gradient from 40% to 90% over 30 min. After normalization for the difference in extinction coefficients (λobs=254 nm), these values were plotted and the rate constants k1 and k−1 were extracted by fitting the data to the integrated rate expression for a simple equilibrium. The kinetic parameters for apoptolidin and isoapoptolidin equilibrium over time in PBS at 37° C. The relative amounts of apoptolidin and isoapoptolidin at various time points are plotted in FIG. 2.

[2] = biological target: T1, mitochondrial F0F1-ATPase (Saccharomyces cerevisiae, UniProt P00830+P07251+P38077); assay: F0F1-ATPase inhibition assay in isolated yeast mitochondria (20 minute cell-free assay); type: biochemical; settings: for F0F1-ATPase inhibitory activity (in words): comparison
T1 construct: endogenous in cells; host or cells: isolated yeast mitochondria (cell-free preparation)
Protocol: The ability of isoapoptolidin and the apoptolidin derivatives described in Examples 3 and 4 to inhibit F0F1-ATPase in isolated yeast mitochondria was studied. The F0F1-ATPase assay is a rapid 20 minute cell-free assay.
The functionalized macrolide and δ-lactone fragments were assayed for inhibitory activity against mitochondrial F0F1-ATPase.

[3] = tested on: rat glial cells transformed with the adenovirus E1A or E1A/E1B19K/E1B54K oncogenes; settings: Seto et al., 1997; cited from earlier work
[4] = tested on: untransformed rat glial cells; settings: Seto et al., 1997; cited from earlier work
normal fibroblasts = settings: Seto et al., 1997; cited from earlier work
[5] = tested on: 60 human cancer cell lines (NCI 60); settings: of 37,000 compounds tested by the National Cancer Institute; cited from earlier work
[6] = Stability of solutions on storage (NMR, HPLC, UV-vis); type: physicochemical; settings: for conversion in dilute aqueous solution: ambient temperature, HPLC or UV-vis
Text: To study the kinetic parameters of isoapoptolidin, the conversion between apoptolidin and isoapoptolidin under biological assay and chemical isolation conditions was observed. […] During this time, no conversion to isoapoptolidin is observed, either by NMR or HPLC. […] Given that the conversion between apoptolidin and isoapoptolidin goes in both directions, it is likely that these two compounds are in equilibrium.

[7] = Stability in the presence of all F0F1-ATPase assay components; type: physicochemical; settings: up to 24 hours
Protocol: To test the ability of isoapoptolidin to inhibit F0F1-ATPase activity, solutions of isoapoptolidin and apoptolidin including all assay components were analyzed for isomerization. After 20 minutes at 37° C., less than 12% conversion was detected.
To test the ability of apoptolidin derivatives to inhibit F0F1-ATPase activity, compound 16 from Table 3 was exposed to all of the assay components for up to 24 hours.

Stability in PBS (LC-MS) = type: physicochemical; settings: conditions that promote apoptolidin/isoapoptolidin isomerization
Protocol: as §1
This experiment leads to the conclusion that while derivatization of apoptolidin at C-20 blocks isomerization to isoapoptolidin, the resulting derivatives (compounds 18 and 20) undergo other transformations.

[8] = Isomerization in basic CD3OD (LCMS and NMR); type: physicochemical
Text: To prevent ring expansion, the primary alcohol may be efficiently converted to a methyl ether or benzoate ester by way of treatment with Meerwein's salt or benzoyl anhydride followed by deprotection, under this procedure, the following macrocycles resulted, respectively: Compound 23: Q^1=Q^2=Q^3=Q^4=Q^5=Q^7=H; Q^6=R^1=R^2=R^3=R^4=CH3 Compound 24: Q^1=Q^2=Q^3=Q^4=Q^5=Q^7=H; Q^6=[…]; R^1=R^2=R^3=R^4=CH3

Question: What does the source list for `COC[C@@H](C[C@H]1O[C@@](O)([C@H](O)[C@@H]2C[C@H](OC)[C@@H](O)CC/C=C(C)/C=C/[C@@H](O[C@@H]3O[C@@H](C)[C@H](OC)[C@@H](O)[C@@H]3O)[C@H](C)/C=C(C)/C=C(C)/C=C(\C)C(=O)O2)[C@H](C)[C@@H](O)[C@H]1C)O[C@H]1C[C@](C)(O)[C@@H](O[C@H]2C[C@@H](OC)[C@H](O)[C@@H](C)O2)[C@H](C)O1` [Apoptolidin]?
Answer: Keq [1]: 0.0616; k1 [1]: 0.0656 h⁻¹; k−1 [1]: 0.106 h⁻¹; IC50 [2]: 700 ± 500 nM; induction of apoptosis [3]: capable of inducing apoptosis; cytotoxic effect [4]: no cytotoxic effect; cytotoxic effect (normal fibroblasts): no cytotoxic effect; rank of selectivity among cytotoxic agents [5]: among the top 0.1% most selective cytotoxic agents; conversion in dilute aqueous solution [6]: convert to isoapoptolidin; stable in solution (no conversion to isoapoptolidin by NMR or HPLC) ([6]; −20° C., dissolved in chloroform or methylene chloride): up to three months

Question: For `COC[C@@H](C[C@H]1O[C@@](OC)([C@H](O)[C@@H]2C[C@H](OC)[C@@H](O)CC/C=C(C)/C=C/[C@@H](O[C@@H]3O[C@@H](C)[C@H](OC)[C@@H](O)[C@@H]3O)[C@H](C)/C=C(C)/C=C(C)/C=C(\C)C(=O)O2)[C@H](C)[C@@H](O)[C@H]1C)O[C@H]1C[C@](C)(O)[C@@H](O[C@H]2C[C@@H](OC)[C@H](O)[C@@H](C)O2)[C@H](C)O1` [Compound 1], which IC50 [2] is on record?
Answer: 2300 ± 500 nM

Question: For `COC[C@@H](C[C@H]1O[C@@](O)([C@H](O)[C@@H]2C[C@H](OC)[C@@H](O)CC/C=C(C)/C=C/[C@@H](O[C@@H]3O[C@@H](C)[C@H](OC)[C@@H](O)[C@@H]3OC(=O)c3ccccc3)[C@H](C)/C=C(C)/C=C(C)/C=C(\C)C(=O)O2)[C@H](C)[C@@H](O)[C@H]1C)O[C@H]1C[C@](C)(O)[C@@H](O[C@H]2C[C@@H](OC)[C@H](O)[C@@H](C)O2)[C@H](C)O1` [Compound 3], which IC50 [2] is on record?
Answer: 300 ± 500 nM

Question: With `COC[C@@H](C[C@H]1O[C@@](O)([C@H](O)[C@@H]2C[C@H](OC)[C@@H](O)CC/C=C(C)/C=C/[C@@H](O[C@@H]3O[C@@H](C)[C@H](OC)[C@@H](O)[C@@H]3O)[C@H](C)/C=C(C)/C=C(C)/C=C(\C)C(=O)O2)[C@H](C)[C@@H](OC(C)=O)[C@H]1C)O[C@H]1C[C@](C)(O)[C@@H](O[C@H]2C[C@@H](OC)[C@H](OC(C)=O)[C@@H](C)O2)[C@H](C)O1` [Compound 14] as the molecule, how does the IC50 [2] read?
Answer: 400 ± 500 nM

Question: Which IC50 [2] does the source give for `COC[C@@H](C[C@H]1O[C@@](O)([C@H](O)[C@@H]2C[C@H](OC)[C@@H](O)CC/C=C(C)/C=C/[C@@H](O[C@@H]3O[C@@H](C)[C@H](OC)[C@@H](O)[C@@H]3O)[C@H](C)/C=C(C)/C=C(C)/C=C(\C)C(=O)O2)[C@H](C)[C@@H](O)[C@H]1C)O[C@H]1C[C@](C)(O)[C@@H](O[C@H]2C[C@@H](OC)[C@H](OC(C)=O)[C@@H](C)O2)[C@H](C)O1` [Compound 15] here?
Answer: 800 ± 500 nM

Question: What does the source list for `COC[C@@H](C[C@H]1O[C@@](O)([C@H](O)[C@@H]2C[C@H](OC)[C@@H](OC(C)=O)CC/C=C(C)/C=C/[C@@H](O[C@@H]3O[C@@H](C)[C@H](OC)[C@@H](O)[C@@H]3O)[C@H](C)/C=C(C)/C=C(C)/C=C(\C)C(=O)O2)[C@H](C)[C@@H](O)[C@H]1C)O[C@H]1C[C@](C)(O)[C@@H](O[C@H]2C[C@@H](OC)[C@H](O)[C@@H](C)O2)[C@H](C)O1` [Compound 16]?
Answer: hydrolysis (ESIMS) [7]: no hydrolysis was detected; IC50 [2]: 800 ± 500 nM

Question: Which IC50 [2] does the source give for `COC[C@@H](C[C@H]1O[C@@](O)([C@H](O)[C@@H]2C[C@H](OC)[C@@H](O)CC/C=C(C)/C=C/[C@@H](O[C@@H]3O[C@@H](C)[C@H](OC)[C@@H](OC(C)=O)[C@@H]3O)[C@H](C)/C=C(C)/C=C(C)/C=C(\C)C(=O)O2)[C@H](C)[C@@H](O)[C@H]1C)O[C@H]1C[C@](C)(O)[C@@H](O[C@H]2C[C@@H](OC)[C@H](O)[C@@H](C)O2)[C@H](C)O1` [Compound 17] here?
Answer: 400 ± 500 nM

Question: For `COC[C@@H](C[C@H]1O[C@@](O)([C@H](OC(C)=O)[C@@H]2C[C@H](OC)[C@@H](O)CC/C=C(C)/C=C/[C@@H](O[C@@H]3O[C@@H](C)[C@H](OC)[C@@H](O)[C@@H]3O)[C@H](C)/C=C(C)/C=C(C)/C=C(\C)C(=O)O2)[C@H](C)[C@@H](O)[C@H]1C)O[C@H]1C[C@](C)(O)[C@@H](O[C@H]2C[C@@H](OC)[C@H](O)[C@@H](C)O2)[C@H](C)O1` [Compound 18], which “stability in PBS” value (Stability in PBS (LC-MS)) is on record?
Answer: unstable under these conditions, producing several new compounds over a five hour period

Question: What about the IC50 [2] of the same molecule?
Answer: 1100 ± 500 nM

Question: Which results are given for `COC[C@@H](C[C@H]1O[C@@](O)([C@H](OC)[C@@H]2C[C@H](OC)[C@@H](O)CC/C=C(C)/C=C/[C@@H](O[C@@H]3O[C@@H](C)[C@H](OC)[C@@H](O)[C@@H]3O)[C@H](C)/C=C(C)/C=C(C)/C=C(\C)C(=O)O2)[C@H](C)[C@@H](O)[C@H]1C)O[C@H]1C[C@](C)(O)[C@@H](O[C@H]2C[C@@H](OC)[C@H](O)[C@@H](C)O2)[C@H](C)O1` [Compound 20]?
Answer: stability in PBS (Stability in PBS (LC-MS)): partially convert to a second isomeric compound over a period of several hours; IC50 [2]: 2800 ± 500 nM

Question: For `CO[C@@H]1[C@@H](O)[C@H](O)[C@H](O[C@@H]2/C=C/C(C)=C/CC[C@H](O)[C@@H](OC)C[C@@H](CO)OC(=O)/C(C)=C/C(C)=C/C(C)=C/[C@H]2C)O[C@H]1C` [Compound 22], which “isomerization to ring expanded isomer” value [8] is on record?
Answer: slowly isomerized to its ring expanded isomer

Question: And the IC50 ([2]; Table 6, apoptolidin oxidative cleavage products, mitochondrial F0F1-ATPase, read-out: IC50)?
Answer: 16000 ± 5000 nM

Question: And the “F0F1-ATPase inhibitory activity (in words)” value [2]?
Answer: potency comparable to isoapoptolidin

Question: With `COC[C@@H](C[C@H]1O[C@@](O)([C@@H]2OC(=O)/C(C)=C/C(C)=C/C(C)=C/[C@@H](C)[C@H](O[C@@H]3O[C@@H](C)[C@H](OC)[C@@H](O)[C@@H]3O)/C=C/C(C)=C/CC[C@H](O)[C@@H](OC)C[C@@H]2O)[C@H](C)[C@@H](O)[C@H]1C)O[C@H]1C[C@](C)(O)[C@@H](O[C@H]2C[C@@H](OC)[C@H](O)[C@@H](C)O2)[C@H](C)O1` [Isoapoptolidin] as the molecule, how does the Keq [1] read?
Answer: 0.638

Question: And the k1 [1]?
Answer: 0.0626 h⁻¹

Question: What about the “k−1” value [1] of the same molecule?
Answer: 0.0982 h⁻¹

Question: What about the IC50 [2] of the same molecule?
Answer: 17000 ± 5000 nM

Question: And the “F0F1-ATPase inhibitory activity (in words)” value [2]?
Answer: reduced F0F1-ATPase inhibitory activity over apoptolidin

Question: What about the “conversion in dilute aqueous solution” value [6] of the same molecule?
Answer: convert to apoptolidin

Question: What about the “stable as a solution” value ([6]; −20° C., methanol) of the same molecule?
Answer: up to six months
